According to US10183021B2, “sGC stimulators” (Ironwood Pharmaceuticals, Inc., priority 2013, dated 2019):

Target: soluble guanylate cyclase (sGC) (Homo sapiens (Human), UniProt Q02108+Q02153)
Assay: sGC-HEK-cGMP assay, new protocol with DETA-NONOate, LC/MS detection (Example 2C)
Type: cell-based
Conditions: read-out: Absolute EC50 (uM) - binned
Protocol: Human embryonic kidney cells (HEK293), endogenously expressing soluble guanylate cyclase (sGC), were used to evaluate the activity of test compounds. Compounds stimulating the sGC enzyme should cause an increase in the intracellular concentration of cGMP. HEK 293 cells were seeded in Dulbecco's Modification of Eagle's Medium supplemented with fetal bovine serum (10% final) and penicillin (100 U/mL)/streptomycin (100 μg/mL) in a 50 μL volume at a density of 1.5×10^4 cells/well in a poly-D-lysine coated 384 well flat bottom plate. Cells were incubated overnight at 37° C. in a humidified chamber with 5% CO2. Medium was aspirated and cells were washed with 1× Hank's Buffered Saline Salt Solution (50 μL). Cells were then incubated for 15 minutes at 37° C. with 50 μL of a 0.5 mM 3-isobutyl-1-methylxanthine (IBMX) solution. Test article and Diethylenetriamine NONOate (DETA-NONOate) solutions (x μM concentration for test article solution and 10 μM concentration for DETA-NONOate solution; wherein x is one of the following concentrations);
were then added to the assay mixture and the resulting mixture incubated at 37° C. for 20 minutes. After the 20 minute incubation, the assay mixture was aspirated and 10% acetic acid containing 150 ng/mL+3-cGMP (internal standard for LCMS) (50 μL) was added to the cells. The plate was incubated at 4° C. for 30 minutes in the acetic acid solution to stop the reaction and lyse the cells. The plates were then centrifuged at 1,000 g for 3 minutes at 4° C. and the supernatant transferred to a clean reaction plate for LCMS analysis.
cGMP concentrations were determined from each sample using the LCMS conditions below (Table 5) and calculated standard curve.
Data were normalized to a high control using the following equation: 100*(Sample−Low Control)/(High Control−Low Control), where the low control is the average of 16 samples treated with 1% DMSO, and the high control is the average of 16 samples treated with 30 μM of 1-329 Data were fit using a 4-parameter fit (log(agonist) vs. response—variable slope) using GraphPad Prism Software v.5. n=2 for all compounds. […] Compounds failing to elicit a minimum response of 50% are reported as >30 μM.

soluble guanylate cyclase (sGC), sequence (Q02153 whole entry): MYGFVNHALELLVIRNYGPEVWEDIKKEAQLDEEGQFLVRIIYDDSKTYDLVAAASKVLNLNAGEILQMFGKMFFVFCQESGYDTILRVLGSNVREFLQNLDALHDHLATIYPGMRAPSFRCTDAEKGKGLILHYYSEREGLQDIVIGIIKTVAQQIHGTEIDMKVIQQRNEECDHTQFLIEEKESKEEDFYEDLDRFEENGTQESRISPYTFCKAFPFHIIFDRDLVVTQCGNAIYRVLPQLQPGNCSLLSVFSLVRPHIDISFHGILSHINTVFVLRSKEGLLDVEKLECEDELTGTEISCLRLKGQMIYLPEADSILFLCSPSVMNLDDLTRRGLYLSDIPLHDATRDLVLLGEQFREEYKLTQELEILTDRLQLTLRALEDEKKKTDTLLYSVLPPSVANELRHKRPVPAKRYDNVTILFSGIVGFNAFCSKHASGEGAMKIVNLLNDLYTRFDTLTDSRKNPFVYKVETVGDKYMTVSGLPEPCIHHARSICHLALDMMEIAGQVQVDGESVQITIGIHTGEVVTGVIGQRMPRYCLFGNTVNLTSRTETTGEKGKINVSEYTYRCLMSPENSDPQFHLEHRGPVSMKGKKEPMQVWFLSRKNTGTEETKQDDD
soluble guanylate cyclase (sGC), sequence (Q02108 whole entry): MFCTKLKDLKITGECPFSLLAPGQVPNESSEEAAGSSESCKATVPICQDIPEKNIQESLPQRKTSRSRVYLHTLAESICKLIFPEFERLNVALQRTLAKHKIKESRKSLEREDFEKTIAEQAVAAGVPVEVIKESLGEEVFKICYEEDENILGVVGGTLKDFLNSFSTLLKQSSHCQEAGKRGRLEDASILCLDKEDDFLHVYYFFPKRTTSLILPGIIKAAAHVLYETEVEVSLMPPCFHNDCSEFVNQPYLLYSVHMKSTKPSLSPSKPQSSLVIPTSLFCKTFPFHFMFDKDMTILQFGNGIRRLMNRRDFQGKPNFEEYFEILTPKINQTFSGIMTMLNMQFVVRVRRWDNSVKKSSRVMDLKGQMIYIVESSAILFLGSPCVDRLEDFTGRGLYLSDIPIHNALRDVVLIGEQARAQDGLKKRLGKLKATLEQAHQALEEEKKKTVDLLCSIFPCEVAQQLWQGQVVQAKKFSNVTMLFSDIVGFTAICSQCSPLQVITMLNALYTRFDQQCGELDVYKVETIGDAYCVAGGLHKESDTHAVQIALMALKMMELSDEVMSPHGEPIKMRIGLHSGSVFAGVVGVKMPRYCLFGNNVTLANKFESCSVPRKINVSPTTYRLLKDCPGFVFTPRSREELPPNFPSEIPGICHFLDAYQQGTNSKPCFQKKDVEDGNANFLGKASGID

Structure (SMILES) | EC50
CCOc1c(Nc2ccnc(-c3cc(-c4ccon4)n(Cc4ccccc4F)n3)n2)c(=O)c1=O [Compound I-327] | > 1 µM
O=C(Nc1ccnc(-c2cc(-c3ccon3)n(Cc3ccccc3F)n2)n1)C1(C(F)(F)F)CC1 [Compound I-328] | > 1 µM
C[C@H]1CCCN(c2nc(-c3cc(-c4ccon4)n(Cc4ccccc4F)n3)ncc2F)[C@H]1C(=O)NS(=O)(=O)C1CC1 [Compound I-331] | 0.101 to 1 µM
C[C@H]1CCCN(c2nc(-c3cc(-c4ccon4)n(Cc4ccccc4F)n3)ncc2F)[C@@H]1C(=O)NS(=O)(=O)C1CC1 [Compound I-332] | < 0.1 µM
C[C@H]1CCCN(c2ccnc(-c3cc(-c4ccon4)n(Cc4ccccc4F)n3)n2)[C@H]1C(=O)O [Compound I-333] | < 0.1 µM
OCC(CO)(CO)Nc1nc(-c2cc(-c3ccon3)n(Cc3ccccc3F)n2)ncc1F [Compound I-334] | 0.101 to 1 µM
NC(=O)[C@H](CO)Nc1nc(-c2cc(-c3ccon3)n(Cc3ccccc3F)n2)ncc1F [Compound I-335] | 0.101 to 1 µM
O=C(NC(CO)CO)[C@@H](CO)Nc1nc(-c2cc(-c3ccon3)n(Cc3ccccc3F)n2)ncc1F [Compound I-336] | > 1 µM
O=C(O)c1cccc2c1CN(c1nc(-c3cc(-c4ccon4)n(Cc4ccccc4F)n3)ncc1F)CC2 [Compound I-339] | < 0.1 µM
CN(CC1(C(=O)O)CC1)c1nc(-c2cc(-c3nccs3)n(Cc3ccccc3F)n2)ncc1F [Compound I-343] | < 0.1 µM
CC(C)[C@H](CN(C)c1nc(-c2cc(-c3ccon3)n(Cc3ccccc3F)n2)ncc1F)NS(=O)(=O)C1CC1 [Compound I-344] | < 0.1 µM
CN(CC1(C(=O)O)CC1)c1nc(-c2cc(-c3cscn3)n(Cc3ccccc3F)n2)ncc1F [Compound I-345] | < 0.1 µM
Fc1ccccc1Cn1nc(-c2ncc(F)c(N3CCc4[nH]nc(C(F)(F)F)c4C3)n2)cc1-c1ccon1 [Compound I-346] | > 1 µM
O[C@@H]1[C@H](O)CN(c2nc(-c3cc(-c4ccon4)n(Cc4ccccc4F)n3)ncc2F)C[C@@H]1O [Compound I-347] | < 0.1 µM
NCC(O)CNc1nc(-c2cc(-c3ccon3)n(Cc3ccccc3F)n2)ncc1F (stereo not drawn) [Compound I-348] | > 1 µM
CS(=O)(=O)NCC(O)CNc1nc(-c2cc(-c3ccon3)n(Cc3ccccc3F)n2)ncc1F (stereo not drawn) [Compound I-349] | < 0.1 µM
O[C@@H]1CN(c2nc(-c3cc(-c4ccon4)n(Cc4ccccc4F)n3)ncc2F)CC[C@@H]1O [Compound I-350] | < 0.1 µM
CC(C)(C)OC(=O)N1CC(O)(CNc2nc(-c3cc(-c4ccon4)n(Cc4ccccc4F)n3)ncc2F)C1 [Compound I-351] | < 0.1 µM
OCC(O)(CCl)CNc1nc(-c2cc(-c3ccon3)n(Cc3ccccc3F)n2)ncc1F (stereo not drawn) [Compound I-352] | < 0.1 µM
OC1(CNc2nc(-c3cc(-c4ccon4)n(Cc4ccccc4F)n3)ncc2F)CNC1 [Compound I-353] | > 1 µM
O=S(=O)(NC1(CNc2nc(-c3cc(-c4ccon4)n(Cc4ccccc4F)n3)ncc2F)CC1)C(F)(F)F [Compound I-354] | < 0.1 µM

Structure (SMILES) | EC50
OCC(O)(CNc1nc(-c2cc(-c3ccon3)n(Cc3ccccc3F)n2)ncc1F)C(F)(F)F (stereo not drawn) [Compound I-355] | < 0.1 µM
O=C1NCC[C@@H]1Nc1nc(-c2cc(-c3ccon3)n(Cc3ccccc3F)n2)ncc1F [Compound I-356] | 0.101 to 1 µM
OC(C1CN(c2nc(-c3cc(-c4ccon4)n(Cc4ccccc4F)n3)ncc2F)C1)(C(F)(F)F)C(F)(F)F [Compound I-357] | > 1 µM
O=C(O)C1(CNc2nc(-c3cc(-c4ccon4)n(Cc4ccccc4F)n3)ncc2F)CC1 [Compound I-358] | < 0.1 µM
O=C(O)C1(c2ccc(Nc3nc(-c4cc(-c5ccon5)n(Cc5ccccc5F)n4)ncc3F)cc2)CC1 [Compound I-360] | < 0.1 µM
CC(=O)c1cc(-c2ncc(F)c(NCC(O)(C(F)(F)F)C(F)(F)F)n2)nn1Cc1ccccc1F [Compound I-362] | 0.101 to 1 µM
O=S(=O)(O)C1CCN(c2nc(-c3cc(-c4ccon4)n(Cc4ccccc4F)n3)ncc2F)CC1 [Compound I-363] | > 1 µM
Oc1n[nH]c2c1CCN(c1nc(-c3cc(-c4ccon4)n(Cc4ccccc4F)n3)ncc1F)C2 [Compound I-370] | < 0.1 µM
CN(Cc1nc(C(=O)O)cs1)c1nc(-c2cc(-c3ccon3)n(Cc3ccccc3F)n2)ncc1F [Compound I-373] | 0.101 to 1 µM
O=C(O)c1cccc(CCNc2nc(-c3cc(-c4ccon4)n(Cc4ccccc4F)n3)ncc2F)c1 [Compound I-377] | < 0.1 µM
CCOC(=O)C1=C(O)CN(c2nc(-c3cc(-c4ccon4)n(Cc4ccccc4F)n3)ncc2F)CC1 [Compound I-378] | < 0.1 µM
O=C(O)[C@H]1CCC[C@@H](Nc2nc(-c3cc(-c4ccon4)n(Cc4ccccc4F)n3)ncc2F)C1 [Compound I-380] | < 0.1 µM
O=S(=O)(CCNc1nc(-c2cc(-c3ccon3)n(Cc3ccccc3F)n2)ncc1F)NCC(F)(F)F [Compound I-381] | < 0.1 µM
CNC(=O)C(C)(O)CN(C)c1nc(-c2cc(-c3ccon3)n(Cc3ccccc3F)n2)ncc1F (stereo not drawn) [Compound I-382] | < 0.1 µM
CN(CC(C)(C)C(=O)O)c1nc(-c2cc(-c3ccon3)n(Cc3ccccc3F)n2)ncc1F [Compound I-383] | < 0.1 µM
CC(=O)NS(=O)(=O)CCNc1nc(-c2cc(-c3ccon3)n(Cc3ccccc3F)n2)ncc1F [Compound I-385] | 0.101 to 1 µM
O=C(Nc1ccnc(-c2cc(-c3ccon3)n(Cc3ccccc3F)n2)n1)c1cc[nH]n1 [Compound I-386] | > 1 µM
O=C(NC1CN(c2nc(-c3cc(-c4ccon4)n(Cc4ccccc4F)n3)ncc2F)C1)C(F)(F)F [Compound I-387] | < 0.1 µM
CC(C)(C)OC(=O)NCCNc1nc(-c2cc(-c3ccon3)n(Cc3ccccc3F)n2)ncc1F [Compound I-390] | < 0.1 µM
NCCNc1nc(-c2cc(-c3ccon3)n(Cc3ccccc3F)n2)ncc1F [Compound I-391] | 0.101 to 1 µM
O=S(=O)(NCCNc1nc(-c2cc(-c3ccon3)n(Cc3ccccc3F)n2)ncc1F)C(F)(F)F [Compound I-392] | < 0.1 µM

Structure (SMILES) | EC50
CN(CC(C)(O)C(N)=O)c1nc(-c2cc(-c3ccon3)n(Cc3ccccc3F)n2)ncc1F (stereo not drawn) [Compound I-393] | 0.101 to 1 µM
O=S(=O)(N1CC(Nc2nc(-c3cc(-c4ccon4)n(Cc4ccccc4F)n3)ncc2F)C1)C(F)(F)F [Compound I-394] | > 1 µM
O[C@@H]1Cc2ccccc2[C@@H]1Nc1nc(-c2cc(-c3ccon3)n(Cc3ccccc3F)n2)ncc1F [Compound I-395] | < 0.1 µM
OC1(C(F)(F)F)CN(c2nc(-c3cc(-c4ccon4)n(Cc4ccccc4F)n3)ncc2F)C1 [Compound I-396] | < 0.1 µM
OC1(CNc2nc(-c3cc(-c4ccon4)n(Cc4ccccc4F)n3)ncc2F)CCOCC1 [Compound I-397] | < 0.1 µM
O=C(O)C(CC(F)F)Nc1nc(-c2cc(-c3ccon3)n(Cc3ccccc3F)n2)ncc1F (stereo not drawn) [Compound I-398] | > 1 µM
OCC(CC(F)F)Nc1nc(-c2cc(-c3ccon3)n(Cc3ccccc3F)n2)ncc1F (stereo not drawn) [Compound I-399] | < 0.1 µM
COC(=O)[C@@H]1CCC(=O)N1c1nc(-c2cc(-c3ccon3)n(Cc3ccccc3F)n2)ncc1F [Compound I-401] | > 1 µM
O=c1c(O)c(Nc2ccnc(-c3cc(-c4ccon4)n(Cc4ccccc4F)n3)n2)c1=O [Compound I-402] | > 1 µM
O=C(O)C(Nc1nc(-c2cc(-c3ccon3)n(Cc3ccccc3F)n2)ncc1F)C(F)(F)F (stereo not drawn) [Compound I-403] | 0.101 to 1 µM
OCC(Nc1nc(-c2cc(-c3ccon3)n(Cc3ccccc3F)n2)ncc1F)C(F)(F)F (stereo not drawn) [Compound I-404] | 0.101 to 1 µM
CC1(C(=O)O)CCCN(c2nc(-c3cc(-c4ccon4)n(Cc4ccccc4F)n3)ncc2F)C1 (stereo not drawn) [Compound I-406] | < 0.1 µM
OCCNc1nc(-c2cc(-c3ccon3)n(Cc3ccccc3F)n2)ncc1F [Compound I-407] | < 0.1 µM
OCCCNc1nc(-c2cc(-c3ccon3)n(Cc3ccccc3F)n2)ncc1F [Compound I-408] | < 0.1 µM
CCN(CC1(C(=O)O)CC1)c1nc(-c2cc(-c3ccon3)n(Cc3ccccc3F)n2)ncc1F [Compound I-409] | < 0.1 µM
Cc1cc(-c2ncc(F)c(=O)[nH]2)nn1Cc1ccccc1F [Compound I-410] | > 1 µM
Cc1cc(-c2ncc(F)c(N(C)CC3(C(=O)O)CC3)n2)nn1Cc1ccccc1F [Compound I-411] | 0.101 to 1 µM
Cc1cc(-c2ncc(F)c(N3CCC[C@H](C)[C@@H]3C(=O)O)n2)nn1Cc1ccccc1F [Compound I-412] | > 1 µM
Cc1cc(-c2ncc(F)c(NC(CO)CO)n2)nn1Cc1ccccc1F [Compound I-413] | > 1 µM
Cc1cc(-c2ncc(F)c(NCC(O)(C(F)(F)F)C(F)(F)F)n2)nn1Cc1ccccc1F [Compound I-414] | > 1 µM
O=C(Nc1nc(-c2cc(-c3ccon3)n(Cc3ccccc3F)n2)ncc1F)C1(C(F)(F)F)CC1 [Compound I-415] | > 1 µM
